Experimental data published in ChEMBL document CHEMBL5113380, “Functionalized quinoxalinones as privileged structures with broad-ranging pharmacological activities” (Eur J Med Chem, 2022).
≈ marks a conversion by molar mass, not a printed value. Blank lines part the entries; values can stand above or below the compound they belong to.

What was measured:
[1] = Inhibition of ALR2 (unknown origin); parameters: species or system Homo sapiens
[2] = Inhibition of ALR1 (unknown origin) relative to control; parameters: concentration or dose not given beside the values; conditions: Homo sapiens; concentration not given here
[3] = molecular target: T1, Glutamate receptor ionotropic AMPA (Homo sapiens, UniProt P42261+P42262+P42263+P48058); experiment: Displacement of [3H]AMPA from AMPA receptor (unknown origin); format: protein-complex assay
[4] = molecular target: Glutamate receptor ionotropic, kainate 1 (Homo sapiens, UniProt P39086); experiment: Binding affinity to GluK1 receptor (unknown origin)
Glutamate receptor 2 = Glutamate receptor 2 (Homo sapiens, UniProt P42262); experiment: Binding affinity to GluA2 receptor (unknown origin)
[5] = molecular target: Glutamate [NMDA] receptor; experiment: Binding affinity to NMDA receptor (unknown origin); format: protein-complex assay, Homo sapiens
[6] = Binding affinity to KA receptor (unknown origin); parameters: species or system Homo sapiens
[7] = molecular target: Glutamate receptor ionotropic, kainate 2 (Homo sapiens, UniProt Q13002); experiment: Binding affinity to GluK2 receptor (unknown origin)
[8] = molecular target: T1, Glutamate receptor ionotropic AMPA; experiment: Binding affinity to AMPA receptor (unknown origin); format: protein-complex assay
Pseudomonas aeruginosa = experiment: Antibacterial activity against Pseudomonas aeruginosa; format: functional
Staphylococcus aureus = experiment: Antibacterial activity against Staphylococcus aureus; format: functional
Bacillus cereus = experiment: Antibacterial activity against Bacillus cereus; format: functional
Escherichia coli = experiment: Antibacterial activity against Escherichia coli; format: functional
Candida albicans = experiment: Antifungal activity against Candida albicans; format: functional
Aspergillus niger = experiment: Antifungal activity against Aspergillus niger; format: functional
[9] = test system: Trichophyton mentagrophytes; experiment: Antimicrobial activity against Trichophyton mentagrophytes; format: functional
[10] = molecular target: Glutamate [NMDA] receptor; experiment: Displacement of [3H]DCKA from NMDA receptor (unknown origin); format: protein-complex assay, Homo sapiens
[11] = Antioxidant activity assessed as DPPH radical scavenging activity; format: functional; conditions: read-out: IC50
[12] = Displacement of [3H]glycine from AMPA receptor (unknown origin); format: protein-complex assay, Homo sapiens

Glutamate receptor ionotropic, kainate 1, sequence (P39086 whole entry): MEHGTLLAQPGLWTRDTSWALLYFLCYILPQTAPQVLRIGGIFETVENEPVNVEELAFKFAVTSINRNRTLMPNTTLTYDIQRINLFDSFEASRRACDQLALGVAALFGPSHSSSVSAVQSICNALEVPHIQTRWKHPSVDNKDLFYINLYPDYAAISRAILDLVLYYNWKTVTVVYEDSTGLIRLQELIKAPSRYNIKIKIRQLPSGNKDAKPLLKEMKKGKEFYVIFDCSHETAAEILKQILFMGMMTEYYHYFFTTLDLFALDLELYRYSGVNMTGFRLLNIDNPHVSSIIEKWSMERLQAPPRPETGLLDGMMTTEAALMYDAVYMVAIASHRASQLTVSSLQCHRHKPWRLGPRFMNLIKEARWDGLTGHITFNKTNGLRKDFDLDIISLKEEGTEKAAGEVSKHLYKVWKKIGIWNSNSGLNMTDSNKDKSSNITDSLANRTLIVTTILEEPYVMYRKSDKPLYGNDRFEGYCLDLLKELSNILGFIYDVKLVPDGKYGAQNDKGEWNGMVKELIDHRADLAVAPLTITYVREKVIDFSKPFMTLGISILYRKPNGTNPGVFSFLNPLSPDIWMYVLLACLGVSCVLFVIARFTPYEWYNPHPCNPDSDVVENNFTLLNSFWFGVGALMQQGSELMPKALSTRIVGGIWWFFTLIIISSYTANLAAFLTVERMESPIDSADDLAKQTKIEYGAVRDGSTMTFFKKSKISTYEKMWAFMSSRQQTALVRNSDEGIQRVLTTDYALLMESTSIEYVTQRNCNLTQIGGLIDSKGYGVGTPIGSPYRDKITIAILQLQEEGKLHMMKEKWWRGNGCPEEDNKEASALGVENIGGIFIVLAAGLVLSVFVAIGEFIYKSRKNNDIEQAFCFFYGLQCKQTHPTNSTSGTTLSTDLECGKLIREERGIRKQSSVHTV
Glutamate receptor ionotropic, kainate 2, sequence (Q13002 whole entry): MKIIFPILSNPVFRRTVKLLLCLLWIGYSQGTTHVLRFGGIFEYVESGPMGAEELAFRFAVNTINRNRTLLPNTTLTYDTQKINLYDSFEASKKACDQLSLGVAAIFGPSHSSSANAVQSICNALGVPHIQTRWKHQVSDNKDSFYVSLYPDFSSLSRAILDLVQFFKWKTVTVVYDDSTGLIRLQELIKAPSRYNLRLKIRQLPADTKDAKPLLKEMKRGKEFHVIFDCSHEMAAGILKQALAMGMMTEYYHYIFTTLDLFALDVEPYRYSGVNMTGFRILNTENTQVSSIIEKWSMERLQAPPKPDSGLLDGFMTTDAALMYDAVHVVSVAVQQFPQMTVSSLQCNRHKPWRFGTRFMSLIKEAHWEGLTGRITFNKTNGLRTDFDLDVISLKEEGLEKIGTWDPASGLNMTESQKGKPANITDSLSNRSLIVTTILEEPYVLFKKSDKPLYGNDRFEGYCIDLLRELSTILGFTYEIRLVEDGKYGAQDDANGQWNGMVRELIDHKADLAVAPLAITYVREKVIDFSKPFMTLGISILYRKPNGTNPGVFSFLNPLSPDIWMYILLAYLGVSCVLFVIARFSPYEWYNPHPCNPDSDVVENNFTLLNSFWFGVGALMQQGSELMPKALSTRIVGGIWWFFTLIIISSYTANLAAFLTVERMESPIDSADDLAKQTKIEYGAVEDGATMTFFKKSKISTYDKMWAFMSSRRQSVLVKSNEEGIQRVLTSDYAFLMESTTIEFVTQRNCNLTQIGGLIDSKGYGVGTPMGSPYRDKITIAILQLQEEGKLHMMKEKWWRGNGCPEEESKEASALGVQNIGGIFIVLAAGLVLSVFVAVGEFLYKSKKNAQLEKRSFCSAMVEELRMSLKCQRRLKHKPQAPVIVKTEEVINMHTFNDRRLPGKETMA
Glutamate receptor 2, sequence (P42262 whole entry): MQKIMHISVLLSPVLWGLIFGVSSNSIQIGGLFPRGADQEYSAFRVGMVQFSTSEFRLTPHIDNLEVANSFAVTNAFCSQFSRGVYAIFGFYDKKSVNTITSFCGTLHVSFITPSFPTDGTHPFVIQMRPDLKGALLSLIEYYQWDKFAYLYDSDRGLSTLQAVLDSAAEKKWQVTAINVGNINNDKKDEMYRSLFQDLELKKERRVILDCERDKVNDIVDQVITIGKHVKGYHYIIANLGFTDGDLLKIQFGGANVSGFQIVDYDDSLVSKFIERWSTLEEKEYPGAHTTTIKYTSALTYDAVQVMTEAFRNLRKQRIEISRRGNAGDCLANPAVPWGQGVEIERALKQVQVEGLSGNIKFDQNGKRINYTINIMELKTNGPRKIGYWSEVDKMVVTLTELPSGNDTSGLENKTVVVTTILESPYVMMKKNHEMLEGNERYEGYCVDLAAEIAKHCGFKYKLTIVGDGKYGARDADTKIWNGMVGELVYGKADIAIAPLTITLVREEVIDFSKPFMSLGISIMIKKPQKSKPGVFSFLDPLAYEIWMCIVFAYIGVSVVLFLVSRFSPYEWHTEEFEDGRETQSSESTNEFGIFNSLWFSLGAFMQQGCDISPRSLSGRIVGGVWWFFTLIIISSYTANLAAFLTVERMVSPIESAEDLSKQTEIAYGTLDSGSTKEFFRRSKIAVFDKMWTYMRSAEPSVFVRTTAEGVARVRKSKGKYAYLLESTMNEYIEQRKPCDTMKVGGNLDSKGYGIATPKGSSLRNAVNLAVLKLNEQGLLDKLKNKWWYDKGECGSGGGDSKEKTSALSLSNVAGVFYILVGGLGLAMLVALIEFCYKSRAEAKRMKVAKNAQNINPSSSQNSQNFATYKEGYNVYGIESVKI

Structure (SMILES): NC(Cn1c(=O)c(=O)[nH]c2ccccc21)C(=O)O (configuration not stated)
- IC50 [3]: 0.69 µM

Structure (SMILES): CCc1c(Br)cc2nc(O)c(O)nc2c1CN(C)CC(=O)O
- IC50 [3]: 2.32 µM

Structure (SMILES): O=C(O)Cc1cccc(-c2ccc3[nH]c(=O)c(=O)[nH]c3c2)c1
- Ki [5]: 41 µM
- IC50 [6]: > 100 µM
- Ki [7]: > 100 µM
- IC50 [8]: > 100 µM
- Ki [4]: > 100 µM

Structure (SMILES): C[C@H]1Cc2cc(Br)cc3[nH]c(=O)c(=O)n(c23)C1CC(=O)Nc1ccccc1 (some centres not stated)
- Ki [10]: 0.003 µM

Structure (SMILES): CC[C@H]1Cc2cc(Br)cc3[nH]c(=O)c(=O)n(c23)C1CC(=O)O (some centres not stated)
- Ki [10]: 0.0014 µM

Structure (SMILES): O=C(O)C[C@H]1CCc2cc(Br)cc3[nH]c(=O)c(=O)n1c23
- Ki [10]: 0.0096 µM

Structure (SMILES): NC(CNC(=O)C(=O)O)C(=O)O (configuration not stated)
- IC50 [3]: 1.3 µM

Structure (SMILES): O=C1CSC(c2ccc([N+](=O)[O-])cc2)N1c1ccc2nc(Cc3ccc(O)cc3)c(=O)[nH]c2c1 (configuration not stated)
- IC50 [11]: 10.5 µM

Structure (SMILES): CCOC(=O)c1nc2cc(F)c(N3CCOCC3)cc2[nH]c1=O
- MIC (Pseudomonas aeruginosa): 250 µg/mL (≈ 778 µM)

Structure (SMILES): O=c1[nH]c2ccc(/C=C/CP(=O)(O)O)cc2[nH]c1=O
- Ki [5]: 69 µM
- IC50 [6]: > 100 µM
- Ki [7]: > 100 µM
- IC50 [8]: > 100 µM
- Ki [4]: > 100 µM

Structure (SMILES): O=C(O)C[C@@H]1CCc2cc(Br)cc3[nH]c(=O)c(=O)n1c23
- Ki [10]: 0.0023 µM

Structure (SMILES): O=C(O)c1ccccc1/C=C/c1ccc2[nH]c(=O)c(=O)[nH]c2c1
- Ki [5]: > 100 µM
- IC50 [6]: 24 µM
- Ki [7]: 2.5 µM
- IC50 [8]: 0.48 µM
- Ki [4]: 1.4 µM

Continued, in another order:

- IC50 [1]: 0.0163 µM
- inhibition [2]: 25.6%
Structure (SMILES): O=C(O)Cn1c(=O)c(Oc2ccc(Br)cc2)nc2cc(Br)ccc21

- Ki [4]: 12.7 µM
- Ki (Glutamate receptor 2): > 100 µM
Structure (SMILES): O=C(Nn1c(=O)c(=O)[nH]c2cc(C#CCCO)ccc21)c1ccccc1

- MIC (Pseudomonas aeruginosa): > 500 µg/mL
- MIC (Staphylococcus aureus): 0.97 µg/mL
- MIC (Bacillus cereus): 6.3 µg/mL
- MIC (Escherichia coli): > 500 µg/mL
- MIC (Candida albicans): 7.8 µg/mL
- MIC (Aspergillus niger): > 500 µg/mL
- MIC [9]: 500 µg/mL
Structure (SMILES): CCCCCCn1c(=O)c2c(-c3ccccc3)nc(-c3ccc[n+](Cc4ccccc4)c3)n2c2ccccc21.[Cl-]
- MBC (Pseudomonas aeruginosa): > 500 µg/mL
- MBC (Staphylococcus aureus): 50 µg/mL
- MBC (Bacillus cereus): > 500 µg/mL
- MBC (Escherichia coli): > 500 µg/mL
- MBC (Candida albicans): 500 µg/mL
- MBC (Aspergillus niger): > 500 µg/mL
- MBC [9]: > 500 µg/mL

- MIC (Escherichia coli): 125 µg/mL (≈ 437 µM)
Structure (SMILES): CCOC(=O)c1nc2ccc(C(F)(F)F)cc2[nH]c1=O

- MIC (Staphylococcus aureus): 250 µg/mL (≈ 873 µM)
- MIC (Escherichia coli): 125 µg/mL (≈ 437 µM)
Structure (SMILES): CCOC(=O)c1nc2cc(C(F)(F)F)ccc2[nH]c1=O

- Ki [10]: 0.0044 µM
Structure (SMILES): C[C@H]1Cc2cc(Cl)cc3[nH]c(=O)c(=O)n(c23)C1CC(=O)O (some centres not stated)

- Ki [8]: 0.022 µM
Structure (SMILES): O=C(Nc1ccc(C(=O)O)cc1)OCc1cn(-c2cc3nc(C(=O)O)c(=O)[nH]c3cc2[N+](=O)[O-])cn1

- IC50 [3]: 0.14 µM
- IC50 [12]: 0.47 µM
Structure (SMILES): CCc1c([N+](=O)[O-])cc2nc(O)c(O)nc2c1CN(C)CC(=O)O

- IC50 [1]: 0.143 µM
- inhibition [2]: 22%
Structure (SMILES): O=C(O)Cn1c(=O)c(CCc2ccccc2)nc2ccccc21

- MIC (Pseudomonas aeruginosa): > 500 µg/mL
- MIC (Staphylococcus aureus): 0.78 µg/mL
- MIC (Bacillus cereus): 0.78 µg/mL
- MIC (Escherichia coli): > 500 µg/mL
- MIC (Candida albicans): 500 µg/mL
- MIC (Aspergillus niger): > 500 µg/mL
- MIC [9]: > 500 µg/mL
Structure (SMILES): CCCCCCCCC[n+]1cccc(-c2nc(-c3ccccc3)c3c(=O)n(CCCCCC)c4ccccc4n23)c1.[I-]
- MBC (Pseudomonas aeruginosa): > 500 µg/mL
- MBC (Staphylococcus aureus): 5 µg/mL
- MBC (Bacillus cereus): 500 µg/mL
- MBC (Escherichia coli): > 500 µg/mL
- MBC (Candida albicans): 500 µg/mL
- MBC (Aspergillus niger): > 500 µg/mL
- MBC [9]: > 500 µg/mL

- IC50 [3]: 1.18 µM
Structure (SMILES): C=Cc1c(Br)cc2nc(O)c(O)nc2c1CN(C)CC(=O)O

- MIC (Pseudomonas aeruginosa): 125 µg/mL (≈ 516 µM)
Structure (SMILES): CCc1nc2ccc(C(F)(F)F)cc2[nH]c1=O
